# Experimental data from PubChem BioAssay (NCI).
#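 These data come from cells grown in 96-well plates and exposed to compound for 48 hours at five concentrations. GI50 is the concentration that inhibits growth by half. TGI is the concentration that stops growth completely.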
# What was measured:
# Assay in all cases: NCI-60 cell line screen, 48 h
# [1] = test system: 786-0 renal
# [2] = test system: BT-549 breast
# [3] = test system: HOP-62 NSCLC
# [4] = test system: HOP-92 NSCLC
# [5] = test system: HS 578T breast
# [6] = test system: IGROV1 ovarian
# [7] = test system: K-562 leukemia
# [8] = test system: MALME-3M melanoma
# [9] = test system: MDA-MB-231 breast
# [10] = test system: NCI-H522 lung
# [11] = test system: RXF 393 renal
# [12] = test system: SF-268 CNS
# [13] = test system: SF-295 CNS
# [14] = test system: SK-OV-3 ovarian
# [15] = test system: SNB-19 CNS
# [16] = test system: SNB-75 CNS
# [17] = test system: UACC-62 melanoma
# [18] = test system: A498 renal
# [19] = test system: A549 NSCLC
# [20] = test system: ACHN renal
# [21] = test system: CAKI-1 renal
# [22] = test system: CCRF-CEM leukemia
# [23] = test system: COLO 205 colon
# [24] = test system: DU-145 prostate
# [25] = test system: EKVX NSCLC
# [26] = test system: HCC-2998 colon
# [27] = test system: HCT-116 colon
# [28] = test system: HCT-15 colon
# [29] = test system: HL-60(TB) leukemia
# [30] = test system: HT29 colon
# [31] = test system: KM12 colon
# [32] = test system: LOX IMVI melanoma
# [33] = test system: M14 melanoma
# [34] = test system: MCF7 breast
# [35] = test system: MDA-MB-435
# [36] = test system: MOLT-4 leukemia
# [37] = test system: NCI-H226 lung
# [38] = test system: NCI-H23 lung
# [39] = test system: NCI-H460 lung
# [40] = test system: NCI/ADR-RES ovarian
# [41] = test system: OVCAR-4 ovarian
# [42] = test system: OVCAR-5 ovarian
# [43] = test system: OVCAR-8 ovarian
# [44] = test system: PC-3 prostate
# [45] = test system: RPMI-8226 leukemia
# [46] = test system: SF-539 CNS
# [47] = test system: SK-MEL-2 melanoma
# [48] = test system: SK-MEL-28 melanoma
# [49] = test system: SK-MEL-5 melanoma
# [50] = test system: SN12C renal
# [51] = test system: SR leukemia
# [52] = test system: SW-620 colon
# [53] = test system: T-47D breast
# [54] = test system: TK-10 renal
# [55] = test system: U251 CNS
# [56] = test system: UACC-257 melanoma
# [57] = test system: UO-31 renal
smiles,measurement,setting,value
N#C/C(=C\c1ccc(-c2ccc(Cl)cc2)o1)C(=O)Nc1ncc(Cc2ccc(Br)cc2)s1,GI50,[1],2450 nM
same,TGI,[1],6800 nM
same,GI50,[2],1840 nM
same,TGI,[2],8690 nM
same,GI50,[3],2470 nM
same,TGI,[3],> 100000 nM
same,GI50,[4],1130 nM
same,TGI,[4],8280 nM
same,GI50,[5],1230 nM
same,TGI,[5],6270 nM
same,GI50,[6],2890 nM
same,TGI,[6],> 100000 nM
same,GI50,[7],4470 nM
same,TGI,[7],> 100000 nM
same,GI50,[8],1550 nM
same,TGI,[8],4260 nM
same,GI50,[9],3380 nM
same,TGI,[9],> 100000 nM
same,GI50,[10],2640 nM
same,TGI,[10],> 100000 nM
same,GI50,[11],8850 nM
same,TGI,[11],33700 nM
same,GI50,[12],3730 nM
same,TGI,[12],> 100000 nM
same,GI50,[13],5220 nM
same,TGI,[13],51500 nM
same,GI50,[14],3920 nM
same,TGI,[14],25900 nM
same,GI50,[15],3580 nM
same,TGI,[15],> 100000 nM
same,GI50,[16],794 nM
same,TGI,[16],3830 nM
same,GI50,[17],2950 nM
same,TGI,[17],> 100000 nM
CC[C@]12C=CCN3CC[C@]4(C(=C(C(=O)OC)C1)Nc1cc5c(cc14)[C@@H]1[C@H](O5)[C@@H](O)[C@@]4(CC)CC(C(=O)OC)=C5Nc6cc(OC)ccc6[C@@]56CCN1[C@@H]46)[C@@H]32,GI50,[1],92.9 nM
same,TGI,[1],1070 nM
same,GI50,[18],98 nM
same,TGI,[18],299 nM
same,GI50,[19],368 nM
same,TGI,[19],6940 nM
same,GI50,[20],174 nM
same,TGI,[20],690 nM
same,GI50,[2],230 nM
same,TGI,[2],2220 nM
same,GI50,[21],87.7 nM
same,TGI,[21],2130 nM
same,GI50,[22],161 nM
same,TGI,[22],> 50000 nM
same,GI50,[23],108 nM
same,TGI,[23],437 nM
same,GI50,[24],591 nM
same,TGI,[24],> 20400 nM
same,GI50,[25],253 nM
same,TGI,[25],12300 nM
same,GI50,[26],130 nM
same,TGI,[26],557 nM
same,GI50,[27],102 nM
same,TGI,[27],352 nM
same,GI50,[28],137 nM
same,TGI,[28],511 nM
same,GI50,[29],58.3 nM
same,GI50,[3],189 nM
same,TGI,[3],3120 nM
same,GI50,[4],70.9 nM
same,TGI,[4],4050 nM
same,GI50,[5],211 nM
same,TGI,[5],> 50000 nM
same,GI50,[30],161 nM
same,TGI,[30],1810 nM
same,GI50,[6],152 nM
same,TGI,[6],2010 nM
same,GI50,[7],117 nM
same,TGI,[7],> 50000 nM
same,GI50,[31],231 nM
same,TGI,[31],3230 nM
same,GI50,[32],29.6 nM
same,TGI,[32],105 nM
same,GI50,[33],163 nM
same,TGI,[33],3140 nM
same,GI50,[8],187 nM
same,TGI,[8],3800 nM
same,GI50,[34],121 nM
same,TGI,[34],> 16500 nM
same,GI50,[9],163 nM
same,TGI,[9],> 11400 nM
same,GI50,[35],173 nM
same,TGI,[35],1460 nM
same,GI50,[36],190 nM
same,TGI,[36],> 50000 nM
same,GI50,[37],160 nM
same,TGI,[37],4300 nM
same,GI50,[38],171 nM
same,TGI,[38],805 nM
same,GI50,[39],407 nM
same,TGI,[39],5550 nM
same,GI50,[10],109 nM
same,TGI,[10],349 nM
same,GI50,[40],388 nM
same,TGI,[40],> 50000 nM
same,GI50,[41],181 nM
same,TGI,[41],> 50000 nM
same,GI50,[42],294 nM
same,TGI,[42],5340 nM
same,GI50,[43],199 nM
same,TGI,[43],2470 nM
same,GI50,[44],225 nM
same,TGI,[44],5140 nM
same,GI50,[45],133 nM
same,TGI,[45],576 nM
same,GI50,[11],150 nM
same,TGI,[11],613 nM
same,GI50,[12],343 nM
same,TGI,[12],11700 nM
same,GI50,[13],250 nM
same,TGI,[13],13800 nM
same,GI50,[46],147 nM
same,TGI,[46],1330 nM
same,GI50,[47],229 nM
same,TGI,[47],2930 nM
same,GI50,[48],457 nM
same,TGI,[48],3260 nM
same,GI50,[49],227 nM
same,TGI,[49],2980 nM
same,GI50,[14],167 nM
same,TGI,[14],706 nM
same,GI50,[50],236 nM
same,TGI,[50],5960 nM
same,GI50,[15],300 nM
same,TGI,[15],14900 nM
same,GI50,[16],345 nM
same,TGI,[16],4440 nM
same,GI50,[51],137 nM
same,TGI,[51],2820 nM
same,GI50,[52],177 nM
same,TGI,[52],1260 nM
same,GI50,[53],155 nM
same,TGI,[53],1330 nM
same,GI50,[54],128 nM
same,TGI,[54],1050 nM
same,GI50,[55],174 nM
same,TGI,[55],877 nM
same,GI50,[56],183 nM
same,TGI,[56],3720 nM
same,GI50,[17],103 nM
same,TGI,[17],1630 nM
same,GI50,[57],131 nM
same,TGI,[57],2180 nM
